Laboratory results published in patent publication US20240307409A1, “ARGININE METHYLTRANSFERASE INHIBITOR AND USE THEREOF” (Cytosinlab Therapeutics Co., Ltd., priority 2021, published 2024).

Columns and labels:
[1] = target: PRMT8 (Homo sapiens, UniProt Q9NR22); assay: PRMT panel selectivity test, PRMT8; assay type: biochemical
Description: [The procedure below names another target; the source says it served here with some conditions changed.] (§1) This experiment was assayed in a buffer prepared on the same day consisting of 10 mMTirs-HCl (pH=8.0), […] and 1 mM DTT. The compounds were prepared to the highest inhibitor concentration ultimately required in the 100× reaction with 100% DMSO and then transferred to one well of a 384-well Echo plate (Echo-eligible 384-well polypropylene microplates 2.0, transparent, flat-bottomed) and sequentially diluted in the next well with a 3-fold dilution of 100% DMSO, and so on, with a total of 10 concentrations based on Precision. 100% DMSO was added to two empty wells as control well without compound and control well without enzyme in the same 384-well Echo plate. 100 nL of compound was transferred from each well of the 384-well Echo plate to a 384-well assay plate (OptiPlate (384-well, white)) via the Echo 550 liquid processor. For wells with compounds and control well without compound, a mixture containing PRMT1 enzyme (5 uL) was added to the 384-well assay plate. For control well without enzyme, a mixture containing test buffer (5 uL) was added instead. The compounds were allowed to incubate with PRMT3 for 15 minutes at room temperature, and then a mixture containing cold SAM and peptide (5 uL) was added to start the reaction (final volume=10 uL). The final concentrations of the components were as follows: 0.1 nM for PRMT3, 15 uM for SAM, 0.05 uM for peptide, and 1% DMSO. After 60 min of incubation at room temperature, the reaction was terminated by the addition of donor and acceptor magnetic beads (15 uL) with a final concentration of 10 ug/mL diluted with AlphaLISA Epigenetics Buffer. The 384-well assay plate was incubated at room temperature for 60 min and the relative fluorescence units (RFU) were nextly determined using a multi-mode plate reader in Alpha mode (Ex680/Em615).
(§2) Curve fitting: the raw data were copied from Reader and the inhibition values were calculated in Excel by equation (1). […]

[2] = target: PRMT6 (Homo sapiens, UniProt Q96LA8); assay: PRMT panel selectivity test, PRMT6; assay type: biochemical
Description: [The procedure below names another target; the source says it served here with some conditions changed.] as §1, §2

[3] = tested on: Toledo cells; assay: Toledo cell proliferation inhibition assay; assay type: cell-based; settings: Homo sapiens, Toledo, 144 h; six-day assay, CellTiter-Glo
Method in brief: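 Toledo cells seeded at 2000 cells/well in RPMI 1640 + 10% FBS and incubated with compound for six days at 37° C, 5% CO2. Viability was then read by CellTiter-Glo luminescence after 30 min orbital mixing.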

Chain of PRMT8 (Q9NR22 whole entry): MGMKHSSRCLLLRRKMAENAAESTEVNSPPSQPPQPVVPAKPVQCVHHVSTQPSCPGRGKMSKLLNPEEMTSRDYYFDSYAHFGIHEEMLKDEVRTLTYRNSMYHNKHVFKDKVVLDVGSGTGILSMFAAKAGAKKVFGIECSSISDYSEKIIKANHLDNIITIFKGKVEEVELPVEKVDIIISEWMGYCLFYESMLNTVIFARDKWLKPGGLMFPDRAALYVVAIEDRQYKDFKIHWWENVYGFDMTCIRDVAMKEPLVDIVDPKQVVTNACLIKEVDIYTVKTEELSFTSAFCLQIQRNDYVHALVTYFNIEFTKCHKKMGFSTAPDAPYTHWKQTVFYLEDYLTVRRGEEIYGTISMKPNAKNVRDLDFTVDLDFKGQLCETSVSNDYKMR
Chain of PRMT6 (Q96LA8 whole entry): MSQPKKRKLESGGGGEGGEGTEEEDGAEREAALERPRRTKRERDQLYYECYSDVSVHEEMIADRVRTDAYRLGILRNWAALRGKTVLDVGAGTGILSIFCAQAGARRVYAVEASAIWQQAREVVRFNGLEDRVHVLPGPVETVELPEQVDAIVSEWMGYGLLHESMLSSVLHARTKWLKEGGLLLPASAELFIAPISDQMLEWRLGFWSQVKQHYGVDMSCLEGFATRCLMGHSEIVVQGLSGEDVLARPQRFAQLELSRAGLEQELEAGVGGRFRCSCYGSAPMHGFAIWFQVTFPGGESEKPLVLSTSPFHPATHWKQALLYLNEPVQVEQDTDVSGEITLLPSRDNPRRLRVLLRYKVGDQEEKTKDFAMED

IC50 [1]	IC50 [2]	SMILES	IC50 [3]
< 50 nM	< 50 nM	CNCCN(C)Cc1ccccc1C1CCN(c2ccccc2)CC1 [P023]	< 1000 nM
< 50 nM	< 50 nM	CNCCN(C)Cc1ncccc1N1CCc2ccccc2CC1 [P118]	< 1000 nM
< 50 nM	< 50 nM	CCOCC1(COCC)CCC(c2cccnc2CN(C)CCNC)CC1 [P207]	< 1000 nM
